This assay relates to DN-DISC1 mice. Briefly: three chamber social novelty test in DN-DISC1 mice. The class given is in vivo, mouse. The text has this:
DN-DISC1 mice express a putative dominant-negative C-terminal truncated DISC1 under expression control of the α CaMKII promoter. Homozygous DN-DISC1 mice were created by systematic cross-breeding of heterozygotes followed by interbreeding of homozygotes at the Johns Hopkins School of Medicine. In the current studies only homozygous males were used. At 3 to 6 months of age, mice were transferred to the Neurogenetics and Behavior Center, Johns Hopkins University, for behavioral testing. They were housed three or four to a cage under a 12 hour light/dark cycle (lights on at 7:00 A.M to 7:00 P.M) and weighed between 25 and 35 grams prior to food deprivation.
Measurement of Social Novelty Test: Wt and DN-DISC1 mice were treated with RR compound or control starting at postnatal day 35 (0.25 mg/kg, i.p./day) and continuing throughout the three-chamber social interaction test in adulthood as described in Johnson et al., supra.
The inventors treated DN-DISC1 mice with RR starting at postnatal day 35 (0.25 mg/kg, i.p./day) and continuing throughout the three-chamber social interaction test in adulthood.

On to `C#CCN1[C@H](C)Cc2ccccc2[C@H]1C` [RR, (1R,3R)-1,3-dimethyl-2-propargyl-1,2,3,4-tetrahydroisoquinoline], for which, under “0.25 mg/kg, i.p./day from postnatal day 35 through testing in adulthood”, the “social deficit (impaired social recognition)” value is reported as “ameliorated the social deficit”. In addition, the “sniffing preference for stranger versus familiar mouse” value (DISC1 mice treated with RR (n=7), p<0.05) is given as “preferentially sniffed the stranger mouse over the familiar mouse”.

Source of the values: patent US10292980B2, “GAPDH cascade inhibitor compounds and methods of use and treatment of stress induced disorders including mental illness” (THE JOHNS HOPKINS UNIVERSITY, priority 2012, dated 2019).
